# What was measured:
# [1] = Tolerability on repeated intraperitoneal dosing; format: in vivo, mice
# HPAC cells [2] = assay: BrdUrd incorporation cell proliferation assay; format: cell-based; settings: Homo sapiens, 24 h
# Method: (§1) The effect of KCN1 on cell proliferation was determined using the BrdUrd incorporation assay (Oncogene, La Jolla, CA) according to the manufacturer’s instructions, [47]. In brief, cells were seeded in 96-well plates (8 × 10^3 to 1.2 × 10^4 cells per well) and incubated with various concentrations of KCN1 (0, 5, 12.5 and 50 µM) for 24 h. BrdUrd was added to the medium 10 h before termination of the experiment. The BrdUrd incorporated into cells was determined by anti-BrdUrd antibody, and absorbance was measured at dual wavelengths of 450/540 nm using an OPTImax microplate reader (Molecular Devices; Sunnyvale, CA).
# BxPC3 cells [3] = assay: BrdUrd incorporation cell proliferation assay; format: cell-based; settings: Homo sapiens, BXPC-3; BxPC3, 50 µM, 24 h
# Method: as §1
# Mia Paca-2 cells [4] = assay: BrdUrd incorporation cell proliferation assay; format: cell-based; settings: Homo sapiens; Mia Paca-2, 50 µM, 24 h
# Method: as §1
# Panc-1 cells [5] = assay: BrdUrd incorporation cell proliferation assay; format: cell-based; settings: Homo sapiens; Panc-1, 50 µM, 24 h
# Method: as §1
# [6] = tested on: HPAC, Panc-1, Mia Paca-2 and BxPC3 pancreatic cancer cells; assay: Western blot of cell cycle-related proteins; format: cell-based, human; settings: all four cell lines, 12 h and 24 h
# Method: In the in vitro studies, cells were exposed to various concentrations of KCN1 for 12 or 24 h. For immunoblotting, cell lysates were fractionated with identical amounts of protein by SDS-PAGE and transferred to Bio-Rad trans-Blot nitrocellulose membranes (Bio-Rad Laboratories, Hercules, CA). The nitrocellulose membrane was then incubated in blocking buffer (Tris-buffered saline containing 0.1% Tween 20 and 5% non-fat milk) for 1 hr at room temperature. Then the membrane was incubated with the appropriate primary antibody overnight at 4°C or 2 h at room temperature with gentle shaking. The membrane was washed three times with rinsing buffer (Tris-buffered saline containing 0.1% Tween 20) for 15 min and then incubated with goat anti-mouse/rabbit IgG-horseradish peroxidase-conjugated antibody (Bio-Rad) for 1 h at room temperature. After repeating the washes in triplicate, the protein of interest was detected by enhanced chemilluminescence reagents from PerkinElmer LAS, Inc (Boston, MA).
# HPAC cells [7] = assay: Cell cycle measurement by flow cytometry; format: cell-based, human; settings: 24 h
# Method: (§2) To determine the effect of KCN1 on the cell cycle, cells (2–3×10^5) were exposed to the test compounds (0, 5, 12.5 or 50 µM) and incubated for 24 h prior to analysis. Cells were trypsinized, washed with PBS, and fixed in 1.5 mL of 95% ethanol at 4°C overnight, followed by incubation with RNAse and staining with propidium iodide (Sigma). The DNA content was determined by flow cytometry, [47].
# BxPC3 cells [8] = assay: Cell cycle measurement by flow cytometry; format: cell-based, human; settings: for cell cycle distribution, G1 / cell cycle distribution, G2/M / cell cycle distribution, S: 24 h
# Method: as §2
# Mia Paca-2 cells [9] = assay: Cell cycle measurement by flow cytometry; format: cell-based, human; settings: for cell cycle distribution, G1 / cell cycle distribution, G2/M / cell cycle distribution, S: 24 h
# Method: as §2
# Panc-1 cells [10] = assay: Cell cycle measurement by flow cytometry; format: cell-based, human; settings: for cell cycle distribution, G1 / cell cycle distribution, G2/M / cell cycle distribution, S: 24 h
# Method: as §2
# Panc-1 xenograft tumors = assay: Subcutaneous xenograft tumor model; format: in vivo, nude mice (nu/nu); settings: for tumor growth inhibition: 5 days/week, Day 21
# Method: The animal procedures were performed under approval by the Institutional Animal Use and Care Committee of Texas Tech University Health Sciences Center (IACUC # 10031, PHS Assurance # A 3056-01, USDA Registration # 74-R-0050, REF # 039436). Female athymic pathogen-free nude mice (nu/nu, 4–6 weeks) were purchased from Charles River Laboratories International Inc. (Wilmington, MA). To establish Panc-1 and Mia Paca-2 human pancreatic cancer xenograft tumors, cultured Panc-1 (5×10^6) and Mia Paca-2 (1×10^7) cells were harvested from monolayer cultures, washed twice with serum-free medium, re-suspended and injected subcutaneously (total volume 0.2 mL) into the left inguinal area of the mice. All animals were monitored for activity, physical condition, body weight, and tumor growth. Tumor size was determined every other day by caliper measurement of two perpendicular diameters of the implant. Tumor volume (in mm^3) was calculated by the formula, ½ (a × b ^2) where “a” is the long diameter and “b” is the short diameter, [47].
# The animals bearing human cancer xenografts were randomly divided into various treatment groups and a control group (7–10 mice/group). The untreated control group received the vehicle only. For the Panc-1 and Mia Paca-2 xenograft models, KCN1 was dissolved in a 1∶1 solution of Cremophor EL (Sigma, St. Louis, MO): ethanol (200 Proof) by heating to 80–90°C in a water bath and vortexing, then diluted with an equal volume of phosphate-buffered saline, and was administered by intraperitoneal injection at doses of 30 and 60 mg/kg/d, 5d/wk for several weeks. Treatment was initiated once tumor volume reached ∼100 mm^3. The dosage regimen was decided based upon IC50 values obtained from in-vitro studies and adjustments for body surface and weight of the treated animal.
structure (smiles),measurement,setting,value
"COc1ccc(S(=O)(=O)N(Cc2ccc3c(c2)C=CC(C)(C)O3)c2ccccc2)cc1OC [KCN1, 3,4-dimethoxy-N-[(2,2-dimethyl-2H-chromen-6-yl)methyl]-N-phenylbenzenesulfonamide]","pathological examination of brain, kidneys, GI tract or lungs at necropsy",[1]; data not shown,no ultra-structural changes
same,"signs of toxicity, behavior and appearance",[1]; i.p. up to 60 mg/kg daily for up to 12 weeks,no apparent signs of toxicity
same,tolerability of regimen,[1]; i.p. up to 60 mg/kg daily in cremophor:ethanol for up to 12 weeks,well tolerated
same,time to reversal of liver swelling after discontinuation of treatment,"[1]; mouse, in vivo",2–3 weeks
same,blood cell populations and blood chemistry,"[1]; preliminary analyses, data not shown",within normal limits
same,liver finding at autopsy,"[1]; tissue edema with bile duct stasis, no hepatocyte death, may be caused by cremophor:ethanol formulation",Swelling was observed in the livers
same,inhibition at 50 µM,HPAC cells [2],~80%
same,inhibition at 50 µM,BxPC3 cells [3],~88%
same,inhibition at 50 µM,Mia Paca-2 cells [4],~60%
same,inhibition at 50 µM,Panc-1 cells [5],~56%
same,"expression of E2F1, Cdk2, Cdk4, Cdk6, Cdc25c, Cyclin D1 and Cyclin E",[6],decreased expression
same,expression of p21 and p27,[6],increased the expression
same,"cell cycle distribution, G1",HPAC cells [7]; 5 µM,62.1±4.9
same,"cell cycle distribution, G2/M",HPAC cells [7]; 5 µM,11.8±1.2
same,"cell cycle distribution, S",HPAC cells [7]; 5 µM,26.1±3.8
same,"cell cycle distribution, G1",HPAC cells [7]; 12.5 µM,66.8±1.6
same,"cell cycle distribution, G2/M",HPAC cells [7]; 12.5 µM,10.9±1.3
same,"cell cycle distribution, S",HPAC cells [7]; 12.5 µM,22.4±1.6
same,"cell cycle distribution, G1",HPAC cells [7]; 50 µM,68.8±2.7
same,"cell cycle distribution, G2/M",HPAC cells [7]; 50 µM,11.5±1.4
same,"cell cycle distribution, S",HPAC cells [7]; 50 µM,19.7±1.4
same,concentration at which G1 arrest begins,HPAC cells [7],5 µM
same,"cell cycle distribution, G1","BxPC3 cells [8]; BXPC3, 5 µM",52.9±4.1
same,"cell cycle distribution, G2/M","BxPC3 cells [8]; BXPC3, 5 µM",26.4±1.3
same,"cell cycle distribution, S","BxPC3 cells [8]; BXPC3, 5 µM",20.8±3.8
same,"cell cycle distribution, G1","BxPC3 cells [8]; BXPC3, 12.5 µM",65.1±3.5
same,"cell cycle distribution, G2/M","BxPC3 cells [8]; BXPC3, 12.5 µM",17.4±1.9
same,"cell cycle distribution, S","BxPC3 cells [8]; BXPC3, 12.5 µM",17.5±2.1
same,"cell cycle distribution, G1","BxPC3 cells [8]; BXPC3, 50 µM",70.8±2.0
same,"cell cycle distribution, G2/M","BxPC3 cells [8]; BXPC3, 50 µM",15.5±1.7
same,"cell cycle distribution, S","BxPC3 cells [8]; BXPC3, 50 µM",13.7±0.9
same,concentration at which G1 arrest begins,"BxPC3 cells [8]; BxPC3, 24 h",5 µM
same,"cell cycle distribution, G1","Mia Paca-2 cells [9]; Mia Paca-2, 5 µM",50.4±3.6
same,"cell cycle distribution, G2/M","Mia Paca-2 cells [9]; Mia Paca-2, 5 µM",31.6±1.9
same,"cell cycle distribution, S","Mia Paca-2 cells [9]; Mia Paca-2, 5 µM",18.0±0.9
same,"cell cycle distribution, G1","Mia Paca-2 cells [9]; Mia Paca-2, 12.5 µM",55.2±1.2
same,"cell cycle distribution, G2/M","Mia Paca-2 cells [9]; Mia Paca-2, 12.5 µM",24.6±0.9
same,"cell cycle distribution, S","Mia Paca-2 cells [9]; Mia Paca-2, 12.5 µM",20.2±1.7
same,"cell cycle distribution, G1","Mia Paca-2 cells [9]; Mia Paca-2, 50 µM",58.9±3.9
same,"cell cycle distribution, G2/M","Mia Paca-2 cells [9]; Mia Paca-2, 50 µM",20.3±1.1
same,"cell cycle distribution, S","Mia Paca-2 cells [9]; Mia Paca-2, 50 µM",20.8±1.5
same,concentration at which G1 arrest begins,"Mia Paca-2 cells [9]; Mia Paca-2, 24 h",5 µM
same,"cell cycle distribution, G1","Panc-1 cells [10]; Panc-1, 5 µM",40.3±2.2
same,"cell cycle distribution, G2/M","Panc-1 cells [10]; Panc-1, 5 µM",30.9±0.8
same,"cell cycle distribution, S","Panc-1 cells [10]; Panc-1, 5 µM",28.8±3.2
same,"cell cycle distribution, G1","Panc-1 cells [10]; Panc-1, 12.5 µM",49.8±0.8
same,"cell cycle distribution, G2/M","Panc-1 cells [10]; Panc-1, 12.5 µM",28.8±1.6
same,"cell cycle distribution, S","Panc-1 cells [10]; Panc-1, 12.5 µM",21.4±0.9
same,"cell cycle distribution, G1","Panc-1 cells [10]; Panc-1, 50 µM",53.3±2.3
same,"cell cycle distribution, G2/M","Panc-1 cells [10]; Panc-1, 50 µM",29.1±1.4
same,"cell cycle distribution, S","Panc-1 cells [10]; Panc-1, 50 µM",17.6±0.9
same,concentration at which G1 arrest begins,"Panc-1 cells [10]; Panc-1, 24 h",12.5 µM
same,tumor growth inhibition,Panc-1 xenograft tumors; 30 mg/kg i.p.,approximately 46%
same,tumor growth inhibition,Panc-1 xenograft tumors; 60 mg/kg i.p.,61%
same,body weight versus controls,Panc-1 xenograft tumors; 30 or 60 mg/kg i.p.,no significant differences in body weights
